Experimental data taken from PMC9686985, “Chimeric Peptides Derived from Bovine Lactoferricin and Buforin II: Antifungal Activity against Reference Strains and Clinical Isolates of Candida spp” (Antibiotics, 2022).
≈ marks a conversion by molar mass, not a printed value. Read-outs that look alike come from different tables or passages of the source. Values belong to the compound of their own block, whether it stands above or below them. Non-standard residues stand in square brackets, D forms with d. Residues, ends and D or L forms follow the SMILES beside them. Ahx = NCCCCCC(=O)O

Experiments:
[1] = system: C. auris 001 HUSI-PUJ; type: cell-based
Description: (§1) The in vitro interactions between the peptides (C6, C8, and C9) and the FLC drug were evaluated in a checkerboard assay, as previously described by Cokol et al.. Briefly, each isolate was prepared by picking colonies from an overnight culture in SBD at 37 °C and suspended in a sterile normal saline PBS buffer. The fungal inoculum was adjusted to 0.5 MacFarland and the inoculum was adjusted to 0.5–2.5 × 10^3 CFU/mL. The drug-peptide combinations were formed over a range of concentrations: 0 (control) and 0.06 to 2 times the MIC [51]. The fractional inhibitory concentration index (FICI) was calculated as follows:
(§2) FICI=CML peptide in combination/CMI peptide alone+CML FLC in combination/CMI FLC alone
(§3) The calculated FICI was reported as synergy with values FICI ≤ 0.5, additive FICI > 0.5–1, indifference FICI > 1–4, and antagonism FICI ≥ 4 [52].
(§4) A synergistic effect was considered to be when the effect of the combination exceeded the effects of the individual components. An additive effect was when the effect of the combination was equal to the sum of the effects of the individual components.

[2] = system: C. auris 537 HUSI-PUJ; type: cell-based
Description: as §1, §2, §3, §4

[3] = system: C. glabrata ATCC 2001; type: cell-based
Description: as §1, §2, §3, §4

[4] = system: C. glabrata 1875 CHU-PUJ; type: cell-based
Description: as §1, §2, §3, §4

[5] = system: C. albicans ATCC SC5314; type: cell-based, Candida albicans; details: for MFC: ATCC SC5314, 24 h
Description: (§5) Antifungal susceptibility testing was carried out using the broth microdilution (BMD) method, following the CLSI M27-A3 guidelines with slight modifications. Briefly, cells (0.5–2.5 × 10^3 CFU/mL) were incubated with peptides (200, 100, 50, 25, 12.5, and 6.25 µg/mL) at 37 °C for 48 h. MICs were visualized and densitometry (595 nm, microplate reader, Bio-Rad, ᵢMark^TM) was used to determine the lowest concentration of peptide that caused a significant decrease (MIC/2 or ≥50%) compared with the growth control (cells incubated in absence of peptide) (n = 3). In order to verify that the peptides were able to kill the yeast cells, the plates were also evaluated for minimum fungicidal concentration (MFC). Briefly, aliquots from each well from susceptibility testing assays were transferred to plates containing Sabouraud dextrose agar (SDA), which were then incubated at 37 °C for 24 h. The highest dilution with no growth on the agar plate was considered to be the MFC.

[6] = system: C. albicans 256 HUSI-PUJ; type: cell-based, Candida albicans; details: for MIC: 48 h; for MFC: 24 h
Description: as §5

[7] = system: E. coli; details: reported; cited from earlier work
Excerpt: LfcinB (20–25): RRWQWR is the shortest sequence derived from LfcinB with antibacterial, antifungal, and anticancer activity. In similar way, Buforin II (BFII) is an antimicrobial peptide with activity against Gram-positive and Gram-negative bacteria as well as fungi. Palindromic sequences have been designed from the 4-residue motif (RLLR) of Buforin II, and their antibacterial activity has been evaluated against Gram-negative and Gram-positive strains. The palindrome [RLLR]5: […] was reported to have an MIC of 0.7 µM against E. coli. Chimeras containing the minimum motif RRWQW ...

[8] = system: C. glabrata 1875; type: cell-based; details: 1875, 48 h
Description: as §5

[9] = system: C. auris 537; type: cell-based; details: 537, 48 h
Description: as §5

[10] = system: C. auris 001; type: cell-based; details: 001, 48 h
Description: as §5

[11] = system: C. albicans SC5314; type: cell-based, Candida albicans; details: SC5314, 48 h
Description: (§6) A time-kill kinetic assay was carried out according to the method previously described by Pfaller and coworkers with minor modifications. The peptides (C5, C6, C8, and C9) diluted in RPMI were tested at a range of concentrations: 0 (control), 0.2, 0.5, 1, and 2 times the MIC value for each strain. The isolates were subcultured on SBD, and then an inoculum was adjusted to a 0.5–2.5 × 10^3 CFU/mL in an RPMI 1640 medium. Yeast inoculum (150 uL) was added to a 100-well plate containing serial dilutions of the peptides. The plates were incubated with agitation at 37 °C in a plate reader (Bioscreen C MBR automated turbidometric analyzer, Growth Curves Ltd., Helsinki, Finland), which takes hourly absorbance readings. Moreover, fluconazole MICs were used as a control. The readings were analyzed with Bioscreen software (Growth Curves USA, Piscataway, NJ, USA) and GraphPad Prism 8.0.1 (GraphPad Soft-ware, San Diego, CA, USA). Statistical comparisons were made using an analysis of variance (two-way ANOVA) followed by a Tukey–Kramer post hoc test. P values less than 0.005 were considered significant. […] Moreover, previously determined FLC MICs (data not shown) were used as a control.

[12] = system: C. albicans 256; type: cell-based, Candida albicans; details: 256, 48 h
Description: as §6

[13] = system: human red blood cells; set-up: method as in PMID 33369144; details: cited from earlier work
[14] = system: C. albicans 256 HUSI-PUJ; type: cell-based, Candida albicans; details: 256 HUSI-PUJ
Description: as §1, §2, §3, §4

[15] = checkerboard run with C6, unit from footnote of Table 4

MICb: MIC of fluconazole alone [1, 15]: 32 µg/mL
MICb: MIC of fluconazole alone [2, 15]: 64 µg/mL
MICb: MIC of fluconazole alone [3, 15]: 0.3 µg/mL
MICb: MIC of fluconazole alone [4, 15]: 4 µg/mL
MIC ([5]; FLC-sensitive reference strain, broth microdilution CLSI M27-A3, 37 °C, 48 h, ≥50% decrease vs growth control, n = 3): 1 µg/mL
MIC ([6]; FLC-resistant clinical isolate, broth microdilution CLSI M27-A3, 37 °C, ≥50% decrease vs growth control, n = 3): 64 µg/mL
Compound: OC(Cn1cncn1)(Cn1cncn1)c1ccc(F)cc1F [FLC, fluconazole, reference compound]

Compound: RLLRRLLRRLLRRLLRRLLR [[RLLR]5, palindrome designed from the RLLR motif of Buforin II]
MIC [7]: 0.7 µM

MICa: MIC of the chimeric peptide alone ([1]; 001 HUSI-PUJ): 400 µg/mL
MICa: MIC of the chimeric peptide alone ([2]; 537 HUSI-PUJ): 400 µg/mL
MICa: MIC of the chimeric peptide alone ([3]; ATCC 2001): 100 µg/mL
MICa: MIC of the chimeric peptide alone ([4]; 1875 CHU-PUJ): 400 µg/mL
MIC ([5]; ATCC SC5314, 48 h): 24 µM
MIC ([6]; 256 HUSI-PUJ): 24 µM
MIC [8]: 96 µM (≈ 201 µg/mL)
MIC [9]: 96 µM (≈ 201 µg/mL)
MIC [10]: 96 µM (≈ 201 µg/mL)
MICa: MIC of the chimeric peptide alone [14]: 100 µg/mL
Compound: CC(C)C[C@H](NC(=O)[C@H](CC(C)C)NC(=O)[C@H](CCCNC(=N)N)NC(=O)[C@H](CCCNC(=N)N)NC(=O)[C@H](CC(C)C)NC(=O)[C@H](CC(C)C)NC(=O)[C@H](CCCNC(=N)N)NC(=O)CCCCCNC(=O)[C@H](CCCCN)NC(=O)[C@H](Cc1c[nH]c2ccccc12)NC(=O)[C@H](CCC(N)=O)NC(=O)[C@H](Cc1c[nH]c2ccccc12)NC(=O)[C@H](CCCCN)NC(=O)[C@@H](N)CCCCN)C(=O)N[C@@H](CCCNC(=N)N)C(N)=O [C6] (H-KKWQWK[Ahx]RLLRRLLR-NH2)
MFC [5]: 48 µM (≈ 100 µg/mL)
MFC ([6]; 256 HUSI-PUJ): 48 µM (≈ 100 µg/mL)
Inhibition of growth [11]: more than 90%
Inhibition of growth [12]: more than 90%
Hemolytic effect [13]: 2–4%

Compound: CC(C)C[C@H](NC(=O)[C@H](CC(C)C)NC(=O)[C@H](CCCCN)NC(=O)[C@H](CCCCN)NC(=O)[C@H](CC(C)C)NC(=O)[C@H](CC(C)C)NC(=O)[C@H](CCCCN)NC(=O)CCCCCNC(=O)[C@H](CCCNC(=N)N)NC(=O)[C@H](Cc1c[nH]c2ccccc12)NC(=O)[C@H](CCC(N)=O)NC(=O)[C@H](Cc1c[nH]c2ccccc12)NC(=O)[C@H](CCCNC(=N)N)NC(=O)[C@@H](N)CCCNC(=N)N)C(=O)N[C@@H](CCCCN)C(N)=O [C5] (H-RRWQWR[Ahx]KLLKKLLK-NH2)
MFC [5]: 97 µM (≈ 200 µg/mL)
MFC ([6]; 256 HUSI-PUJ): 97 µM (≈ 200 µg/mL)
Inhibition of growth [11]: more than 90%
Inhibition of growth [12]: more than 90%
Hemolytic effect [13]: 2–4%
